Experiments:
cultured rat astrocytes = assay: Cell survival after H2O2, FDA fluorescence; format: cell-based; settings: for protective effect of receptor ligand on H2O2-induced cell death: 30 min pre-incubation with ligand (OP 0.1 nM, [Ala15]ODN 0.1 nM, clonazepam 10 nM), then 1 h 300 µM H2O2; for effect of pathway inhibitor on the protective action of ODN: H89 20 µM, U0126 20 µM, U73122 10 µM, chelerythrine 0.1 µM; for effect of inhibitor on dbcAMP-promoted astroglial cell survival: H89 20 µM or U0126 20 µM, 1 h 300 µM H2O2 with dbcAMP 1 mM
Procedure: Secondary cultures of rat cortical astrocytes were prepared as previously described [64]with minor modifications. Briefly, cerebral hemispheres from newborn Wistar rats were collected in DMEM/F12 (2∶1; v/v) culture medium supplemented with 2 mM L-glutamine, 1‰ insulin, 5 mM HEPES, 0.4% glucose and 1% of the antibiotic-antimycotic solution. The tissues were dissociated mechanically with a syringe equipped with a 1-mm gauge needle, and filtered through a 100-µm sieve (Falcon, Franklin Lakes, NJ, USA). […] When cultures were confluent, astrocytes were isolated by shaking overnight the flasks on an orbital agitator. Adhesive cells were detached by trypsination and preplated for 5 min to discard contaminating microglial cells. Then, the non-adhering astrocytes were harvested and plated on 35-mm hydrophilic surface Petri dishes at a density of 3×10^5 cells/ml. […] The cells were incubated at 37°C in a humid atmosphere (5% CO2). […] All experiments were performed on 5- to 7-day-old secondary cultures.
Cultured cells were incubated at 37°C with fresh serum-free culture medium in the absence or presence of H2O2 and/or ODN for 1 h. Cells were then incubated for 10 min at 37°C with 0.3 µg/ml calcein-AM (producing green fluorescence in living cells), rinsed twice with culture medium without probe and examined on an inverted microscope (Leica, Heidelberg, Germany) equipped with a double pass filter.
For quantification of surviving astrocytes, cells were incubated for 8 min with 15 µg/ml FDA-AM, rinsed twice with phosphate-buffered saline (PBS) and lysed with a Tris/HCl solution containing 1% sodium dodecyl sulfate (SDS). Fluorescence was measured with excitation at 485 nm and emission at 538 nm, using a microplate reader (Bio-Tek FLx 800).

[1] = system: cAMP formation in astroglial cells (adenylyl cyclase); assay: cAMP production, radioimmunoassay; format: cell-based, rat; settings: antagonist 1 µM, 30 min pre-incubation with 0.1 mM IBMX; ODN 0.1 nM, 10 min
Procedure: Secondary cultures of rat cortical astrocytes were prepared as previously described [64]with minor modifications. Briefly, cerebral hemispheres from newborn Wistar rats were collected in DMEM/F12 (2∶1; v/v) culture medium supplemented with 2 mM L-glutamine, 1‰ insulin, 5 mM HEPES, 0.4% glucose and 1% of the antibiotic-antimycotic solution. The tissues were dissociated mechanically with a syringe equipped with a 1-mm gauge needle, and filtered through a 100-µm sieve (Falcon, Franklin Lakes, NJ, USA). Dissociated cells were resuspended in culture medium supplemented with 10% FBS, plated in 175-cm^2 flasks (Greiner Bio-one GmbH, Frickenhausen, Germany) and incubated at 37°C in a 5% CO2/[…] atmosphere. When cultures were confluent, astrocytes were isolated by shaking overnight the flasks on an orbital agitator. Adhesive cells were detached by trypsination and preplated for 5 min to discard contaminating microglial cells. Then, the non-adhering astrocytes were harvested and plated on 35-mm hydrophilic surface Petri dishes at a density of 3×10^5 cells/ml. […]
Cultured cells were pre-incubated for 30 min in serum-free medium containing 0.1 mM IBMX to inhibit phosphodiesterases, and then incubated in the same solution, in the presence or absence of test substances. […] The concentration of cAMP was measured by using a cAMP RIA kit. […]

ERK1 and ERK2 = assay: ERK phosphorylation, Western blot; format: cell-based, rat; settings: ODN 0.1 nM, 1 h; flumazenil 1 µM, cyclo1-8[DLeu5]OP 1 µM, H89 20 µM, U0126 20 µM
Procedure: (§1) Secondary cultures of rat cortical astrocytes were prepared as previously described [64]with minor modifications. Briefly, cerebral hemispheres from newborn Wistar rats were collected in DMEM/F12 (2∶1; v/v) culture medium supplemented with 2 mM L-glutamine, 1‰ insulin, 5 mM HEPES, 0.4% glucose and 1% of the antibiotic-antimycotic solution. The tissues were dissociated mechanically with a syringe equipped with a 1-mm gauge needle, and filtered through a 100-µm sieve (Falcon, Franklin Lakes, NJ, USA). Dissociated cells were resuspended in culture medium supplemented with 10% FBS, plated in 175-cm^2 flasks (Greiner Bio-one GmbH, Frickenhausen, Germany) and incubated at 37°C in a 5% CO2/[…] atmosphere. When cultures were confluent, astrocytes were isolated by shaking overnight the flasks on an orbital agitator. Adhesive cells were detached by trypsination and preplated for 5 min to discard contaminating microglial cells. Then, the non-adhering astrocytes were harvested and plated on 35-mm hydrophilic surface Petri dishes at a density of 3×10^5 cells/ml. For measurement of cell survival, caspase-3 activity and mitochondrial activity, cells were plated in hydrophilic surface 24-well plates at a density of 8×10^4 cells/ml. The cells were incubated at 37°C in a humid atmosphere (5% CO2). After 5 days (DIV5), more than 99% of the cells were labeled with antibodies against glial fibrillary acidic protein [65]. All experiments were performed on 5- to 7-day-old secondary cultures.
Cultured cells were incubated at 37°C for 1 h with fresh serum-free medium in the absence or presence of test substances. Total proteins were extracted with lysis buffer containing 1% Triton X-100, 50 mM Tris/HCl and 10 mM EDTA. After centrifugation (20,000 g, 4°C, 15 min), the proteins contained in the supernatant were precipitated by addition of ice-cold 10% TCA. The extract was centrifuged (15,000 g, 4°C, 15 min) and washed three times with alcohol/ether. The pellet was denatured (100°C, 5 min) in 50 mM Tris/HCl (pH 7.5) containing 20% glycerol, 0.7 M 2-mercaptoethanol, 0.004% bromophenol blue and 3% SDS, and then migrated on a 10% SDS-polyacrylamide gel electrophoresis (PAGE). After separation, proteins were electrically transferred onto nitrocellulose membrane (Amersham, Les Ulis, France). […] Signal was quantified using an image analysis system (Biocom, Les Ulis, France).

[2] = system: glutathione (GSH) in cultured astrocytes; assay: Intracellular glutathione content, mBCl fluorescence; format: cell-based, rat; settings: antagonist 1 µM, 30 min pre-incubation; ODN 0.1 nM, 1 h; flumazenil statement covers control and H2O2-treated cells
Procedure: as §1
Reduced GSH was measured by using the thiol-reactive probe mBCl. At the end of the treatment period, the culture medium was removed and the cells were incubated with the mBCl probe (40 µM) at 37°C for 30 min and then washed twice with PBS. Fluorescence intensity was measured with excitation at 360 nm and emission at 485 nm, using a microplate reader (Bio-Tek FLx 800).

caspase-3 = assay: Caspase-3 activity, fluorometric Z-DEVD-Rhodamine 110; format: cell-based, rat; settings: for effect of inhibitor on the inhibitory action of ODN on H2O2-induced caspase-3 activity: H89 20 µM, U0126 20 µM, U73122 1 µM, chelerythrine 1 µM, 30 min pre-incubation, 1 h 300 µM H2O2 with ODN 0.1 nM
Procedure: as §1
At the end of the incubation with test substances, cultured astrocytes were washed twice with PBS at 37°C, resuspended in DMEM (100 µl) and treated with fluorometric caspase-3 Apo-1 assay system. In brief, 100 µl of the cell suspension was incubated with 100 µl of kit buffer and caspase substrate in 96-well plates. Caspase-3 activity was calculated from the slope of the fluorescence measured every 15 min for 3 h with excitation at 485 nm and emission at 530 nm, and expressed as a percentage of the control.

[3] = 30 min pre-incubation, then 1 h 300 µM H2O2 with ODN 0.1 nM, FDA fluorescence

Molecule	effect of antagonist or inhibitor on ODN-induced ERK phosphorylation (ERK1 and ERK2)	effect of pathway inhibitor on the protective action of ODN (cultured rat astrocytes; [3])	effect of inhibitor on the inhibitory action of ODN on H2O2-induced caspase-3 activity (caspase-3)	also measured
CCOC(=O)c1ncn2c1CN(C)C(=O)c1cc(F)ccc1-2 [flumazenil]	did not affect ODN-induced ERK phosphorylation	–	–	effect of receptor antagonist on the glioprotective action of ODN (cultured rat astrocytes; antagonist 1 µM, 30 min pre-incubation, then 1 h 300 µM H2O2 with ODN 0.1 nM, FDA fluorescence): did not affect the protective effect of ODN; effect of antagonist on ODN-stimulated cAMP formation [1]: did not affect the increase of cAMP induced by ODN; effect of antagonist on ODN-stimulated GSH formation [2]: did not impair the effect of ODN on glutathione production neither in control nor in H2O2-treated cells
O=C1CN=C(c2ccccc2Cl)c2cc([N+](=O)[O-])ccc2N1 [clonazepam]	–	–	–	protective effect of receptor ligand on H2O2-induced cell death (cultured rat astrocytes; FDA fluorescence): unable to block the effect of H2O2
COc1ccc2c(c[n+](C)c3c4cc5c(cc4ccc23)OCO5)c1OC [chelerythrine]	–	did not modify the protective effect of ODN	neither U73122 nor chelerythrine could suppress the effect of ODN	–
N#CC(=C(/N)Sc1ccccc1N)/C(C#N)=C(/N)Sc1ccccc1N [U0126]	suppressed	totally abrogated the protective action of ODN	abrogated the inhibitory effect of ODN on H2O2-induced caspase-3 activity	effect of inhibitor on dbcAMP-promoted astroglial cell survival (cultured rat astrocytes; 30 min pre-incubation): suppressed
[Ala^15]ODN: inactive ODN analog (QATVGDVNTDRPGLADLK; Octadecaneuropeptide; UniProt P11030 34-51, looked up, variant L15A)	–	–	–	protective effect of receptor ligand on H2O2-induced cell death (cultured rat astrocytes; FDA fluorescence): devoid of protective activity
COc1ccc2c(c1)CC[C@@H]1[C@@H]2CC[C@]2(C)[C@@H](NCCCCCCN3C(=O)C=CC3=O)CC[C@@H]12 [U73122]	–	did not modify the protective effect of ODN	neither U73122 nor chelerythrine could suppress the effect of ODN	–
CCCC(=O)Nc1ncnc2c1ncn2[C@@H]1O[C@@H]2COP(=O)(O)O[C@H]2[C@H]1OC(=O)CCC [dbcAMP, N^6,2′-O-dibutyryladenosine 3′,5′ cyclic monophosphate]	–	–	–	protective effect of cAMP analog on H2O2-evoked cell death (cultured rat astrocytes; dbcAMP 1 mM, 1 h 300 µM H2O2, FDA fluorescence): mimicked the protective effect of ODN on H2O2-evoked cell death; effect of cAMP analog on H2O2-evoked caspase-3 activation (caspase-3; dbcAMP 1 mM, 1 h 300 µM H2O2): mimicked the effect ODN on H2O2-evoked caspase-3 activation
O=S(=O)(NCCNC/C=C/c1ccc(Br)cc1)c1cccc2cnccc12 [H89]	suppressed	totally abrogated the protective action of ODN	abrogated the inhibitory effect of ODN on H2O2-induced caspase-3 activity	effect of inhibitor on dbcAMP-promoted astroglial cell survival (cultured rat astrocytes; 30 min pre-incubation): suppressed

Source: paper PMC3424241, “The Octadecaneuropeptide ODN Protects Astrocytes against Hydrogen Peroxide-Induced Apoptosis via a PKA/MAPK-Dependent Mechanism” (PLoS ONE, 2012)
